How the values were obtained:
ACE = molecular target: T1, ACE (Oryctolagus cuniculus, UniProt P12822); experiment: In vitro ACE-inhibitory activity (FAPGG substrate, spectrophotometric); format: biochemical; settings: ACE purified by lung rabbit, FAPGG 0.8 mM, 37°C
T1 construct: ACE (250 mU/ml purified by lung rabbit, EC 3.4.15.1 SIGMA); purchased SIGMA; host or cells: rabbit lung (tissue-purified)
T1 sequence (P12822 34-1310): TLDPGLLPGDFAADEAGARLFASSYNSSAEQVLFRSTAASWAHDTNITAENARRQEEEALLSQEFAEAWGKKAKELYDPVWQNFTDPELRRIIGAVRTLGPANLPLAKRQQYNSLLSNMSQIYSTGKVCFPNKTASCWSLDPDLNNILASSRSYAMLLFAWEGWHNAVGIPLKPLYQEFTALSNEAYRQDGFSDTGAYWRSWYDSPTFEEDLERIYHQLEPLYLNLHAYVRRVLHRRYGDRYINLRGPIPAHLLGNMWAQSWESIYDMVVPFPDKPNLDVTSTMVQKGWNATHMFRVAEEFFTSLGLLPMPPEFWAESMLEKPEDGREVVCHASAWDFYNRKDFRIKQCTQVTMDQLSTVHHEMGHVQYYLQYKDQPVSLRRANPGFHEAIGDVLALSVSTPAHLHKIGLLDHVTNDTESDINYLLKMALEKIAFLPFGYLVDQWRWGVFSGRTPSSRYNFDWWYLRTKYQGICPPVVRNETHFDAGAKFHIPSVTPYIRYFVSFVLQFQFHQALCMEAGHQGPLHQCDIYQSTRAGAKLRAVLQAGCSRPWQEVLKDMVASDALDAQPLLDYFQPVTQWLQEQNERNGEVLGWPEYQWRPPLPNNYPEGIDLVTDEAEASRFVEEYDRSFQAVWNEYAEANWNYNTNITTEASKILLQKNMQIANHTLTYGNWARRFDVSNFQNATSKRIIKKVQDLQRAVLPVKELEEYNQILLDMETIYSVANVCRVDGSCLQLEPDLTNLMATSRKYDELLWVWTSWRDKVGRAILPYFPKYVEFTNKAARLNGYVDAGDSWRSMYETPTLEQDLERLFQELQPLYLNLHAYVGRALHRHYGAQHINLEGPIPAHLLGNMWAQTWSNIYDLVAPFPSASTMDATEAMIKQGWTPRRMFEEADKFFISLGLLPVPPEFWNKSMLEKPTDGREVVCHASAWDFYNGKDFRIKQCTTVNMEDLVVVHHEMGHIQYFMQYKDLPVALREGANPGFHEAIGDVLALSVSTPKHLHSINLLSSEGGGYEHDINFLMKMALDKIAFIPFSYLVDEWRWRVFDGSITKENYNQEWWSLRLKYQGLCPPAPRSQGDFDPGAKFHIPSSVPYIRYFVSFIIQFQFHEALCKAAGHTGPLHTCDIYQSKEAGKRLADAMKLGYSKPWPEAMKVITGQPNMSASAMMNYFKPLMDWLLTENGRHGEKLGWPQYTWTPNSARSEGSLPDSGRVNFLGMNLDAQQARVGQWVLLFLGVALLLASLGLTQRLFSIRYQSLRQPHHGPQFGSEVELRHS
Protocol: […] of ACE (250 mU/ml purified by lung rabbit, EC 3.4.15.1 SIGMA) were preincubated with 50 µl of the compound of formula I or of the reference compound or related vehicle in thermostated cuvettes at 37°C.
The reaction was started by adding furylacryloylphenylalanylglycylglycine 0.8 mM (FAPGG-SIGMA).
Contemporaneously, by using a Beckman DU-50 spectrophotometer provided with a program for calculating delta A/minutes and regression coefficients of the enzyme kinetics curves, the absorbance at 340 nm was recorded in continuo for 5 minutes.
The percentage of the enzyme inhibition in the preparations treated with the compounds of formula I or with the comparative compounds with respect to the untreated preparations was expressed as IC50 (nM) value.

NEP = molecular target: T2, NEP (Rattus norvegicus, UniProt P07861); experiment: In vitro NEP-inhibitory activity in rat kidney cortex membranes ([3H][Leu5]-enkephaline hydrolysis); format: biochemical; design: Kidneys were removed from male Sprague-Dawley rats weighing approximately 300 g; from tissue; host or cells: rat kidney cortex membranes (male Sprague-Dawley); settings: [3H][Leu5]-enkephaline 15 nM, 30°C
T2 sequence (P07861 1-750): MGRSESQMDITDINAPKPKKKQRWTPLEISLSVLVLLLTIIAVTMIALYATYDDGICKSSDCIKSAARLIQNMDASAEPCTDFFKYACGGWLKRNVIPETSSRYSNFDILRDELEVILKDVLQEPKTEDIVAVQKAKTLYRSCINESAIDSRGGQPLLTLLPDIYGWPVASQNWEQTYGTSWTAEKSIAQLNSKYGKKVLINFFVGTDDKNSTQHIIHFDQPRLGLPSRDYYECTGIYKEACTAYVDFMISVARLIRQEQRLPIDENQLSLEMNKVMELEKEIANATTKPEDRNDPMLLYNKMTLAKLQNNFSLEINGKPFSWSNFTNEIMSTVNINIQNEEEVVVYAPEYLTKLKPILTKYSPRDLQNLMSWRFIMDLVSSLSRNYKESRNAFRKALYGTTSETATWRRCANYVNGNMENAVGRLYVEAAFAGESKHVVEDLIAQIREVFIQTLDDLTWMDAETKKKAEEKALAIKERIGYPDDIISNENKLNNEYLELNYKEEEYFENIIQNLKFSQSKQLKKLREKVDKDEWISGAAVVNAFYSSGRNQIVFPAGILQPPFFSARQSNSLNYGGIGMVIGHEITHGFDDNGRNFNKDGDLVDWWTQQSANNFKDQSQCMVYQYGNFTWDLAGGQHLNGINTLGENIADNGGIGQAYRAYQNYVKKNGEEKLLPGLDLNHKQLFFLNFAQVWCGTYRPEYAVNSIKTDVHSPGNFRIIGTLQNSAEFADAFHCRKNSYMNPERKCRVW
Protocol: The NEP-inhibitory activity was evaluated in rat kidney cortex membranes prepared according to the procedure described by T. Maeda et al. in Biochim. Biophys.
Kidneys were removed from male Sprague-Dawley rats weighing approximately 300 g and kept at 4°C.
Kidney cortex was carefully dissected, finely minced and suspended in a homogenization buffer (10 mM sodium phosphate pH 7.4 containing 1 mM MgCl2, 30 mM NaCl, 0.02% NaN3) 1:15 weight/volume.
The tissue was then cold homogenized for 30 seconds using an Ultra-Turrax homogenizer.
The membranes were collected from the buffer/sucrose interface, washed twice with 50 mM TRIS/HCl buffer (pH 7.4) and resuspended into the same buffer for storage in small aliquots at -80°C until use.
The NEP-inhibitory activity was evaluated by using the method described by C.
Aliquots of the membrane suspension prepared as above described (concentration 5 µg/ml of proteins) were preincubated in the presence of an aminopeptidase inhibitor (Bestatin - 1 mM) for 10 minutes at 30°C.
Incubation (20 minutes at 30°C) was stopped by adding HCI 0.1M (100 µl).
The formation of the metabolite [^3H]Tyr-Gly-Gly was quantified by chromatography on polystyrene columns (Porapak Q).
The percentage of inhibition of the metabolite formation in the membrane preparations treated with the compounds of formula I and with the comparative compounds with respect to the untreated membrane preparations was expressed as IC50 (nM) value.

IC50 (ACE) [nM]	IC50 (NEP) [nM]	NEP-inhibitory activity IC50 (nM) (NEP)	Compound
1.8	1.8		O=C(N[C@@H](Cc1ccc(-c2ccco2)cc1)C(=O)O)[C@@H](CS)Cc1ccccc1 [Compound 18, N-[(2S)-3-mercapto-2-phenylmethylpropionyl]-4-(2-furyl)-L-phenylalanine]
		not active	C[C@H](CS)C(=O)N1CCC[C@H]1C(=O)O [Captopril, reference compound]
1.8	2		O=C(N[C@@H](Cc1ccc(-c2ccccn2)cc1)C(=O)O)[C@@H](CS)Cc1ccccc1 [Compound 22, N-[(2S)-3-mercapto-2-phenylmethylpropionyl]-4-(2-pyridyl)-L-phenylalanine]
9.1	17.3		O=C(N[C@@H](Cc1ccc(-c2nccs2)cc1)C(=O)O)C(CS)Cc1cccnc1 (single isomer, unassigned) [Compound 27, N-[3-mercapto-2-(3-pyridylmethyl)propionyl]-4-(2-thiazolyl)-L-phenylalanine]
8.6	4		O=C(N[C@@H](Cc1ccc(-c2nccs2)cc1)C(=O)O)C(CS)Cc1ccco1 (stereo partly drawn) [Compound 32, N-[3-mercapto-2-(2-furyl)methyl-propionyl]-4-(2-thiazolyl)-L-phenylalanine]
10.7	11.2		O=C(N[C@@H](Cc1ccc(-c2nccs2)cc1)C(=O)O)C(CS)Cc1ccccc1F (stereo partly drawn) [Compound 30, N-[3-mercapto-2-(2-fluorophenyl)methyl-propionyl]-4-(2-thiazolyl)-L-phenylalanine]
1.9	1.8		O=C(N[C@@H](Cc1ccc(-c2cncnc2)cc1)C(=O)O)[C@@H](CS)Cc1ccccc1 [Compound 19, N-[(2S)-3-mercapto-2-phenylmethylpropionyl]-4-(5-pyrimidinyl)-L-phenylalanine]
4.6	9		COc1cccc(CC(CS)C(=O)N[C@@H](Cc2ccc(-c3nccs3)cc2)C(=O)O)c1 (stereo partly drawn) [Compound 29, N-[3-mercapto-2-(3-methoxyphenyl)methyl-propionyl]-4-(2-thiazolyl)-L-phenylalanine]
2.5	1.3		O=C(N[C@@H](Cc1ccc(-c2ccsc2)cc1)C(=O)O)[C@@H](CS)Cc1ccccc1 [Compound 24, N-[(2S)-3-mercapto-2-phenylmethylpropionyl]-4-(3-thienyl)-L-phenylalanine]
1.6	0.6		O=C(N[C@@H](Cc1ccc(-c2cccs2)cc1)C(=O)O)[C@@H](CS)Cc1ccccc1 [Compound 23, N-[(2S)-3-mercapto-2-phenylmethylpropionyl]-4-(2-thienyl)-L-phenylalanine]
7.9	4.5		Cc1cc(CC(CS)C(=O)N[C@@H](Cc2ccc(-c3nccs3)cc2)C(=O)O)on1 (stereo partly drawn) [Compound 33, N-[3-mercapto-2-(3-methyl-5-isoxazolyl)methyl-propionyl]-4-(2-thiazolyl)-L-phenylalanine]
1.5	2.5		O=C(N[C@@H](Cc1ccc(-c2cnccn2)cc1)C(=O)O)[C@@H](CS)Cc1ccccc1 [Compound 20, N-[(2S)-3-mercapto-2-phenylmethylpropionyl]-4-(2-pyrazinyl)-L-phenylalanine]
2.4	1		O=C(N[C@@H](Cc1ccc(-c2ccoc2)cc1)C(=O)O)[C@@H](CS)Cc1ccccc1 [Compound 25, N-[(2S)-3-mercapto-2-phenylmethylpropionyl]-4-(3-furyl)-L-phenylalanine]
1.7	2.6		O=C(N[C@@H](Cc1ccc(-c2cccnc2)cc1)C(=O)O)[C@@H](CS)Cc1ccccc1 [Compound 21, N-[(2S)-3-mercapto-2-phenylmethylpropionyl]-4-(3-pyridyl)-L-phenylalanine]
5.8	1.8		CC(C)CC(CS)C(=O)N[C@@H](Cc1ccc(-c2nccs2)cc1)C(=O)O (stereo partly drawn) [Compound 28, N-(2-isobutyl-3-mercapto-propionyl)-4-(2-thiazolyl)-L-phenylalanine]

Compound	IC50 (ACE) [nM]	IC50 (NEP) [nM]	NEP-inhibitory activity IC50 (nM) (NEP)
O=C(N[C@@H](Cc1ccc(-c2nccs2)cc1)C(=O)O)C(CS)Cc1cccs1 (stereo partly drawn) [Compound 31, N-[3-mercapto-2-(2-thienyl)methyl-proionyl]-4-(2-thiazolyl)-L-phenylalanine]	8.6	1.2	
